Experimental findings from patent publication US12098148B2, “Therapeutic compounds” (C4X Discovery Limited, priority 2018, dated 2024) are described below.

Experiment [1] deals with human KEAP1 (N-term, residues 321-609) (Homo sapiens, UniProt Q14145). Put plainly: biochemical.
Experiment [2] has as its system NQO1 mRNA in BEAS-2B cells. Put plainly: Beas2B NQO1 mRNA cell based assay. Details: species or system human. The note with it: Homo sapiens, BEAS-2B, 24 h, 24 h compound treatment, increase in NQO1 mRNA vs vehicle (0.1% DMSO), read-out: EC50. The method, boiled down:
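BEAS-2B human bronchial epithelial cells exposed to compound for 24 h at 37 °C, 5% CO2. NQO1 mRNA measured by one-step TaqMan RT-qPCR on unpurified lysates, normalized to β-actin; relative expression by ΔΔCT method.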
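Wherever IC50 is given: fluorescence polarization competition assay of Kelch domain binding to NRF2, 12-point 1:3 dilution series from 10 µM, read after 1 h at room temperature, floor 10 nM.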

Sequence of human KEAP1 (N-term, residues 321-609) (Q14145 321-609): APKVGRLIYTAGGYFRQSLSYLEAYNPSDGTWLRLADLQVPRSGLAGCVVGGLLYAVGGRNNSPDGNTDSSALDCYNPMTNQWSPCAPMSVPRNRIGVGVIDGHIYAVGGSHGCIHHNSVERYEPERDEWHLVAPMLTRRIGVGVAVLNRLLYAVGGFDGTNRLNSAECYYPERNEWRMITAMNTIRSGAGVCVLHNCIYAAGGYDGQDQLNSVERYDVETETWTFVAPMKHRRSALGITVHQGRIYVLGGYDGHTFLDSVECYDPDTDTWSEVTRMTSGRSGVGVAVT

`Cn1nnc(COc2cccc3c2[C@@H](CN2CCCC2=O)N(C(=O)[C@@H]2CCCC[C@]2(C)C(=O)O)CC3)c1C(F)(F)F` [Example 190, (1S,2R)-1-methyl-2-((S)-8-((1-methyl-5-(trifluoromethyl)-1H-1,2,3-triazol-4-yl)methoxy)-1-((2-oxopyrrolidin-1-yl)methyl)-1,2,3,4-tetrahydroisoquinoline-2-carbonyl)cyclohexane-1-carboxylic acid] gave an IC50 in experiment [1] of 5.6 nM. For the same molecule, in experiment [2], the EC50 was found to be 8.6 nM.
Taken in the same sequence, the figures for `Cc1cnnc(N2CC[C@H](Oc3ccc(Br)c4c3[C@@H](CN3Cc5ccccc5C3=O)N(C(=O)[C@@H]3CCCC[C@@H]3C(=O)O)CC4)C2)c1` [Example 22, (1S,2R)-2-((S)-5-bromo-8-(((S)-1-(5-methylpyridazin-3-yl)pyrrolidin-3-yl)oxy)-1-((1-oxoisoindolin-2-yl)methyl)-1,2,3,4-tetrahydroisoquinoline-2-carbonyl)cyclohexane-1-carboxylic acid] were 4.7 nM and 15 nM.
Taken in the same sequence, the figures for `Cc1onc(COc2ccc(Cl)c3c2[C@@H](CN2CCCC2=O)N(C(=O)[C@@H]2CCCC[C@]2(C)C(=O)O)CC3)c1Cl` [Example 125, (1S,2R)-2-((S)-5-chloro-8-((4-chloro-5-methylisoxazol-3-yl)methoxy)-1-((2-oxopyrrolidin-1-yl)methyl)-1,2,3,4-tetrahydroisoquinoline-2-carbonyl)-1-methylcyclohexane-1-carboxylic acid] were 9.2 nM and 30 nM.
Turning to `Cc1cc(C(=O)N2CC[C@H](Oc3cccc4c3[C@@H](CN3C(=O)c5ccccc5C3=O)N(C(=O)[C@@H]3CCCC[C@@H]3C(=O)O)CC4)C2)no1` [Example 4, (1S,2R)-2-((S)-1-((1,3-Dioxoisoindolin-2-yl)methyl)-8-(((S)-1-(5-methylisoxazole-3-carbonyl)pyrrolidin-3-yl)oxy)-1,2,3,4-tetrahydroisoquinoline-2-carbonyl)cyclohexane-1-carboxylic acid], the IC50 in experiment [1] stood at 9 nM. Also, the EC50 in experiment [2] was 13 nM.
In turn, `Cn1nnc(COc2ccc(Cl)c3c2[C@@H](CN2CC4(CC4)CC2=O)N(C(=O)[C@@H]2CC[C@H](O)C[C@]2(C)C(=O)O)CC3)c1C(F)F` [Example 223, (1S,2R,5S)-2-((S)-5-chloro-8-((5-(difluoromethyl)-1-methyl-1H-1,2,3-triazol-4-yl)methoxy)-1-((6-oxo-5-azaspiro[2.4]heptan-5-yl)methyl)-1,2,3,4-tetrahydroisoquinoline-2-carbonyl)-5-hydroxy-1-methylcyclohexane-1-carboxylic acid] returned an IC50 in experiment [1] of 5 nM. Further, in experiment [2], the EC50 was 15 nM.
`Cn1nnc(COc2ccc(F)c3c2[C@@H](CN2CCCC2=O)N(C(=O)[C@@H]2CCCC[C@]2(C)C(=O)O)CC3)c1C(F)(F)F` [Example 178, (1S,2R)-2-((S)-5-fluoro-8-((1-methyl-5-(trifluoromethyl)-1H-1,2,3-triazol-4-yl)methoxy)-1-((2-oxopyrrolidin-1-yl)methyl)-1,2,3,4-tetrahydroisoquinoline-2-carbonyl)-1-methylcyclohexane-1-carboxylic acid] showed an IC50 in experiment [1] of 6.4 nM. In addition, the EC50 in experiment [2] amounted to 13 nM.
In experiment [1], `Cn1nnc(COc2ccc(Cl)c3c2[C@@H](CN2CC4(CC4)CC2=O)N(C(=O)[C@@H]2CCCC[C@]2(C)C(=O)O)CC3)c1C(F)(F)F` [Example 150, (1S,2R)-2-((S)-5-chloro-8-((1-methyl-5-(trifluoromethyl)-1H-1,2,3-triazol-4-yl)methoxy)-1-((6-oxo-5-azaspiro [2.4]heptan-5-yl)methyl)-1,2,3,4-tetrahydroisoquinoline-2-carbonyl)-1-methylcyclohexane-1-carboxylic acid] returned an IC50 of 5 nM. For the same molecule, the EC50 in experiment [2] is 0.97 nM.
`Cn1nnc(COc2ccc(Cl)c3c2[C@@H](CN2CC4(CC4)CC2=O)N(C(=O)[C@@H]2C[C@H]4C[C@H]4C[C@]2(C)C(=O)O)CC3)c1C(F)F` [Example 208, (1S,3S,4R,6R)-4-((S)-5-chloro-8-((5-(difluoromethyl)-1-methyl-1H-1,2,3-triazol-4-yl)methoxy)-1-((6-oxo-5-azaspiro[2.4]heptan-5-yl)methyl)-1,2,3,4-tetrahydroisoquinoline-2-carbonyl)-3-methylbicyclo[4.1.0]heptane-3-carboxylic acid] had an IC50 in experiment [1] of 580 nM. Besides, in experiment [2], the EC50 was 3300 nM.
Taken in the same sequence, the figures for `Cn1nnc(COc2ccc(Cl)c3c2[C@@H](CN2CCOCC2=O)N(C(=O)[C@@H]2CCCC[C@]2(C)C(=O)O)CC3)c1C(F)F` [Example 200, (1S,2R)-2-((S)-5-chloro-8-((5-(difluoromethyl)-1-methyl-1H-1,2,3-triazol-4-yl)methoxy)-1-((3-oxomorpholino)methyl)-1,2,3,4-tetrahydroisoquinoline-2-carbonyl)-1-methylcyclohexane-1-carboxylic acid] were 5.1 nM and 1.2 nM.
Regarding `C[C@@H]1CC(=O)N(C[C@@H]2c3c(OCc4nnn(C)c4C(F)(F)F)ccc(Cl)c3CCN2C(=O)[C@@H]2CCCC[C@]2(C)C(=O)O)C1` [Example 132, (1S,2R)-2-((S)-5-chloro-1-(((R)-4-methyl-2-oxopyrrolidin-1-yl)methyl)-8-((1-methyl-5-(trifluoromethyl)-1H-1,2,3-triazol-4-yl)methoxy)-1,2,3,4-tetrahydroisoquinoline-2-carbonyl)-1-methylcyclohexane-1-carboxylic acid], the concentration for half-maximal inhibition (IC50) in experiment [1] was found to be 5.1 nM. Moreover, the EC50 in experiment [2] amounted to 5.7 nM.
The like results for `Cn1nnc(COc2ccc(Cl)c3c2[C@@H](CN2Cc4ccccc4C2=O)N(C(=O)[C@@H]2CCCC[C@@H]2C(=O)O)CC3)c1C(F)(F)F` [Example 54, (1S,2R)-2-((S)-5-Chloro-8-((1-methyl-5-(trifluoromethyl)-1H-1,2,3-triazol-4-yl)methoxy)-1-((1-oxoisoindolin-2-yl)methyl)-1,2,3,4-tetrahydroisoquinoline-2-carbonyl)cyclohexane-1-carboxylic acid] were, in that order, 3.6 nM and 7.2 nM.
On to `Cn1nnc(COc2ccc(Cl)c3c2[C@@H](CN2Cc4ccccc4C2=O)N(C(=O)[C@@H]2CCCC[C@@H]2C(=O)O)CC3)c1C(F)F` [Example 53, (1S,2R)-2-((S)-5-chloro-8-((5-(difluoromethyl)-1-methyl-1H-1,2,3-triazol-4-yl)methoxy)-1-((1-oxoisoindolin-2-yl)methyl)-1,2,3,4-tetrahydroisoquinoline-2-carbonyl)cyclohexane-1-carboxylic acid], for which the IC50 in experiment [1] turned out to be 6.2 nM. The EC50 in experiment [2] is 1.4 nM.
In experiment [1], `CC(C)n1cc(COc2ccc(C(F)(F)F)c3c2[C@@H](CN2Cc4ccccc4C2=O)N(C(=O)[C@@H]2CCCC[C@@H]2C(=O)O)CC3)nn1` [Example 62, (1S,2R)-2-((S)-8-((1-isopropyl-1H-1,2,3-triazol-4-yl)methoxy)-1-((1-oxoisoindolin-2-yl)methyl)-5-(trifluoromethyl)-1,2,3,4-tetrahydroisoquinoline-2-carbonyl)cyclohexane-1-carboxylic acid] gave an IC50 of 14 nM. For the same molecule, the 50% effective concentration (EC50) in experiment [2] was found to be 120 nM.
Taken in the same sequence, the figures for `Cn1cccc(COc2ccc(Cl)c3c2[C@@H](CN2CC4(CC4)CC2=O)N(C(=O)[C@@H]2CCCC[C@]2(C)C(=O)O)CC3)c1=O` [Example 211, (1S,2R)-2-((S)-5-chloro-8-((1-methyl-2-oxo-1,2-dihydropyridin-3-yl)methoxy)-1-((6-oxo-5-azaspiro[2.4]heptan-5-yl)methyl)-1,2,3,4-tetrahydroisoquinoline-2-carbonyl)-1-methylcyclohexane-1-carboxylic acid] were 6.8 nM and 43 nM.
As to `CC(C)c1nc(COc2ccc(Cl)c3c2[C@@H](CN2CCCC2=O)N(C(=O)[C@@H]2CCCC[C@@H]2C(=O)O)CC3)no1` [Example 83, (1S,2R)-2-((S)-5-Chloro-8-((5-isopropyl-1,2,4-oxadiazol-3-yl)methoxy)-1-((2-oxopyrrolidin-1-yl)methyl)-1,2,3,4-tetrahydroisoquinoline-2-carbonyl) cyclohexane-1-carboxylic acid], in experiment [1], the IC50 was 7.8 nM. The EC50 in experiment [2] was determined as 35 nM.
As for `CC(C)n1cc(COc2ccc(Br)c3c2[C@@H](CN2C[C@@H](C)CC2=O)N(C(=O)[C@@H]2CCCC[C@@H]2C(=O)O)CC3)nn1` [Example 77, (1S,2R)-2-((S)-5-Bromo-8-((1-isopropyl-1H-1,2,3-triazol-4-yl)methoxy)-1-(((S)-4-methyl-2-oxopyrrolidin-1-yl)methyl)-1,2,3,4-tetrahydroisoquinoline-2-carbonyl) cyclohexane-1-carboxylic acid], half-maximal inhibition in experiment [1] (IC50) required 7.8 nM. Also, the EC50 in experiment [2] came to 6.7 nM.
Molecule `COCCc1c(COc2ccc(Cl)c3c2[C@@H](CN2CCCC2=O)N(C(=O)[C@@H]2CCCC[C@]2(C)C(=O)O)CC3)nnn1C` [Example 128, (1S,2R)-2-((i)-5-chloro-8-((5-(2-methoxyethyl)-1-methyl-1H-1,2,3-triazol-4-yl)methoxy)-1-((2-oxopyrrolidin-1-yl)methyl)-1,2,3,4-tetrahydroisoquinoline-2-carbonyl)-1-methylcyclohexane-1-carboxylic acid] had a half-inhibitory concentration (IC50) in experiment [1] of 8.7 nM. Moreover, the EC50 in experiment [2] amounted to 1.9 nM.
In experiment [1], `C[C@]1(C(=O)O)CCCC[C@H]1C(=O)N1CCc2c(Cl)ccc(OCc3noc4c(F)c(F)ccc34)c2[C@H]1CN1CCCC1=O` [Example 165, (1S,2R)-2-((S)-5-chloro-8-((6,7-difluorobenzo[d]isoxazol-3-yl)methoxy)-1-((2-oxopyrrolidin-1-yl)methyl)-1,2,3,4-tetrahydroisoquinoline-2-carbonyl)-1-methylcyclohexane-1-carboxylic acid] came in with an IC50 of 8.4 nM. Also, the EC50 in experiment [2] worked out at 11 nM.
